Experimental data: ChEMBL document CHEMBL1141849, “A beta-carboline alkaloid from the soft coral lignopsis spongiosum” (1999)

System: Escherichia coli
Assay: Antibacterial activity against Escherichia coli ATCC 25922 at 50 ug/disk by agar diffusion assay
Format: functional
Conditions: read-out: IZ

## C[n+]1cc2[nH]c3ccccc3c2cc1C(=O)[O-]
  zone of inhibition at 50 µg/disc: 11 mm
